Molecular target: Cyclin-dependent kinase 2 (Homo sapiens, UniProt P24941)
Experiment: Inhibition Assay
Procedure: The inhibitory against activated CDK2-cyclin A2 complex was determined by using the ADP Quest fluorescence assay from (DiscoveRX, Fremont, CA)

Row | Compound | IC50 [µM]
1 | Cc1ccc(N=Nc2c(O)ccc3nn[nH]c23)cc1 | > 150
2 | O=c1cc(-c2ccc(O)cc2)oc2c(O)c(O)c(O)c(O)c12 [2-(4-hydroxyphenyl)-5,6,7,8-tetrakis(oxidanyl)chromen-4-one] | > 150
3 | Oc1ccc(/N=C/c2c(O)ccc3ccccc23)cc1 [Hit compound, 3] | > 150
4 | O=c1[nH]c(O)ccc1N=Nc1ccc(S(=O)(=O)O)cc1 [Hit compound, 4] | 45
5 | COCc1cc(/N=N/c2cccc(S(N)(=O)=O)c2)c2ccccc2c1N [Hit compound, 5] | 53
6 | Nc1cc([N+](=O)[O-])ccc1Nc1ccc(O)cc1 [Hit compound, 12] | > 150

The remaining lines, values ahead:

Row | IC50 [µM] | Compound
7 | 46 | O=C1c2ccccc2C(=O)C1c1ccccn1
8 | > 150 | Nc1ccc2c(c1Cl)C(=O)c1ccc(N)c(Cl)c1C2=O [2,6-bis(azanyl)-1,5-bis(chloranyl)anthracene-9,10-dione]
9 | > 150 | Cc1ccc(/N=N/c2ccc(N)cc2C)c(S(N)(=O)=O)c1 [Hit compound, 7]
